“Also recorded” adds a separate entry of the source.
Tests used:
Type in all cases: cell-based, human
LOX-1 protein expression = test: ox-LDL-induced LOX-1 protein expression in HUVECs (Western blotting); conditions: 200 nM, 5 μg/ml ox-LDL
Protocol: (§1) FIG. 3A, FIG. 3B, FIG. 3C and FIG. 3D depict the inhibitory effect of the lead compounds on Dil-ox-LDL uptake by HUVECs and CHO cells (measured by flow cytometry) and the effect of the lead compounds on ox-LDL-induced LOX-1 mRNA and protein expression. (FIG. 3A) (Upper Panel) Flow cytometry measurements using HUVECs in the presence of the five lead compounds (Mol-1-Mol-5), each a at 200 nM concentration. (Lower Panel) The percentage of internalized ox-LDL. Graphs show data as mean (±SD); n=4. *P<0.01 or <0.05 vs. control. (FIG. 3B) IC50 value for Mol-5. IC50 value (in nM) is based on inhibition of Dil-ox-LDL uptake in CHO cells overexpressing human LOX-1. Graphs show data as mean (±SD); n=5. *P<0.01 or <0.05 vs. control. (FIG. 3C) Western blotting assay showing LOX-1 protein expression in HUVECs following incubation with 200 nM Mol-1 to Mol-5 for 30 min, and subsequently exposure to 5 μg/mL ox-LDL for 6 hours. (FIG. 3D) The variation of LOX-1 mRNA expression levels at different concentrations of the compounds following exposure of HUVECs to 5 μg/mL ox-LDL. The concentrations are indicated on the X-axis and the LOX-1 mRNA levels are shown on the Y-axis. The plots for all the five molecules are shown in separate colors. Graphs show data as mean (±SD); n=3. *P<0.01 vs. control; #P<0.01 vs. ox-LDL group.
Internalization of ox-LDL via binding to LOX-1 activates endothelial cells and upregulates the expression of LOX-1^2. In this study, it was tested if the lead molecules would inhibit LOX-1 expression. Accordingly, LOX-1 protein expression in HUVECs was measured by Western blotting.
HUVECs were plated into 6-well cell culture plates. […] The protein concentrations were measured by Bradford protein assay. […] The protein bands were scanned by a Gel Doc™ XR System (Bio-Rad, Hercules, Calif.), and the density of each band was quantified by Image J software. The relative expression of target proteins was calculated with comparison to […] bands.

ERK1/2 = test: ox-LDL-induced activation (phosphorylation) of ERK1/2 in HUVECs (Western blotting); conditions: 200 nM
Protocol: (§2) FIG. 4A, FIG. 4B, FIG. 4C, FIG. 4D and FIG. 4E depict the effect of lead molecules on ox-LDL-induced the activation of MAPKs in HUVECs, VCAM-1 expression and monocyte adhesion onto HUVECs. […] (FIG. 4B) Western blot analyses showing phospho-p38MAPK expression in HUVECs following exposure to 200 nM of each compound for 30 min, and subsequently exposed to 5 μg/mL ox-LDL for 6 hours. […] (FIG. 4D) The variation of VCAM-1 mRNA expression levels with different concentrations of the led compounds. The concentrations are indicated on the X-axis and the VCAM-1 mRNA levels are shown on the Y-axis. The plots for all five molecules are shown in separate colors. […] Graphs show data as mean (±SD); n=3 (for Western blot and PCR assays) or n=20 (for monocyte adhesion assay). *P<0.01 vs. control; #P<0.01 or <0.05 vs. ox-LDL group.
(§3) To assess downstream effects of each candidate molecule, ox-LDL induced expression and activation of ERK1/2 and P38MAPK was measured in HUVECs in the absence or presence of each candidate molecule (200 nM). […] Importantly, unphosphorylated MAPKs were not affected by any of the candidate molecules.
(§4) HUVECs were plated into 6-well cell culture plates. When the cells were reached 70% confluence, they were treated with 200 nM of each of 5 molecules for 30 min, and subsequently exposed to […] ox-LDL for 6 h. After washing with PBS for 2 times, the cells were treated with Cell Lysis Buffer (Promega, Madison, Wis.) with protease Inhibitor and phosphatase Inhibitor (Sigma-Aldrich, St. Louis, Mo.). The protein concentrations were measured by Bradford protein assay. Proteins (20 tg) were separated by electrophoresis in 12% precast SDS-PAGE gels, and were transferred onto Nitrocellulose Blotting Membrane (GE Healthcare Life Science, Piscataway, N.J.). The membranes were then incubated with LOX-1, VCAM-1 (Abcam, Cambridge, Mass.), ERK1/2, phospho-ERK1/2, phospho-p38MAPK (Cell Signaling Technology, Inc., Danvers, Mass.), or […] (Santa Cruz Biotechnology, Inc., Dallas, Tex.) primary antibodies (1:1000˜1:2000) in blocking solution at 4° C. overnight. Following wash with TBS-1 for 3 times, the blots were incubated with HRP-conjugated secondary antibodies (1:10000) in blocking solution for 1 hour at room temperature. After 3 washes with PBS, the blots were treated with Western Blotting Luminol Reagents (Santa Cruz Biotechnology) for 3 min and then exposed to Blue Basic Autorad Film (GeneMate, Kaysville, Utah). The protein bands were scanned by a Gel Doc™ XR System (Bio-Rad, Hercules, Calif.), and the density of each band was quantified by Image J software. The relative expression of target proteins was calculated with comparison to […] bands.

P38 MAPK = test: ox-LDL-induced activation (phosphorylation) of P38 MAPK in HUVECs (Western blotting); conditions: 200 nM
Protocol: as §2, §3, §4

LOX-1 mRNA = test: ox-LDL-induced LOX-1 mRNA expression in HUVECs (q-PCR); conditions: for effect on ox-LDL-induced LOX-1 mRNA upregulation / LOX-1 transcription (in words): 5 μg/ml ox-LDL 6 h, 20, 200, 2000 nM; for reduction of LOX-1 transcription: 200 nM concentration
Protocol: as §1
LOX-1 mRNA levels in HUVECs treated with ox-LDL in the absence or presence of the lead molecules at varying concentrations was also measured.
HUVECs were plated into 12-well plates, and treated with 0, 20, 200 and 2000 nM of each of 5 molecules […] for 30 min, and subsequently exposed to […] ox-LDL for 6 h at 37° C. Total RNA was isolated from the treated HUVECs by using a RNeasy Mini-Kit […] according to the manufacturer's instructions. Prior to using, RNA was treated with DNase I and diluted to 100 ng/tL. 100 ng RNA was applied to synthesize cDNA with SuperScript III 1st Strand DNA Synthesis Kit. qPCR was performed using the Applied Biosystems Fast 7500HT real-time PCR system with a 20 tL reaction volume including 10 tL GoTaq qPCR Master Mix (Promega, Madison, Wis.), 100 ng of cDNA and 0.3 tM primers. Data was analyzed by using MX3000P software. Relative mRNA expression was quantified using the comparative threshold cycle (Ct) method. The sequences of primers used for PCR reaction have been described previously^30.

Row | SMILES | effect on ox-LDL-induced LOX-1 protein expression (LOX-1 protein expression) | effect on ox-LDL-induced activation/phosphorylation of ERK1/2 (in words) (ERK1/2) | effect on ox-LDL-induced activation of P38 MAPK (in words) (P38 MAPK) | reduction of the level of phospho-P38 MAPK (P38 MAPK) | effect on ox-LDL-induced LOX-1 mRNA upregulation / LOX-1 transcription (in words) (LOX-1 mRNA) | reduction of LOX-1 transcription (LOX-1 mRNA) [%] | effect on ox-LDL-induced activation/phosphorylation of ERK1/2 (in words) (ERK1/2; listed as MoL-4)
1 | CCOCCCNC(=O)CCN1C(=O)COc2ccccc21 [Mol-1] | significantly reduced | significantly inhibited; also recorded: moderately | significantly inhibited | around 60% |  |  | 
2 | CC(C)(C)C(=O)NCCc1nc2ccccc2n1Cc1ccccc1F [Mol-2] |  | no significant effect | no significant effect |  | no significant effect |  | 
3 | CCCn1c(CCNC(=O)CCCO)nc2ccccc21 [Mol-4] | significantly reduced | potently reduced | significantly inhibited | around 60% | significantly reduced | 47 | significantly inhibited
4 | Cc1cc(C)n(CC(O)COc2ccccc2)n1 (centres unmarked) [Mol-5, 1-(3,5-dimethyl-1H-pyrazol-1-yl)-3-phenoxypropan-2-ol] | significantly reduced | significantly inhibited; also recorded: maximum inhibition; also recorded: potently reduced | significantly inhibited; also recorded: maximum inhibition | 75% | significantly reduced | 70 | 

Source: patent US11465972B2, “Inhibitors of oxidized low-density lipoprotein receptor 1 and methods of use thereof” (United States Government as represented by the Department …, priority 2015, dated 2022)
